Ends that are not written are not given here.
Legend:
Human neutrophil MPO = assay: Purified MPO inflammatory peritonitis model (peritoneal wash TMB peroxidase activity, PicoGreen free DNA); type: in vivo, Wistar rats; details: for MPO activity in peritoneal wash: P<0.019
Experimental: Human neutrophil MPO (Lee Biosolutions) was diluted in sterile saline to the respective doses necessary for each experiment. PIC1 in the form of PA-dPEG24 (PolyPeptide Group) was solubilized and diluted in 0.5 M Histidine buffer, adjusted to pH 6.5, and then diluted to each of the respective doses used for each experiment.
Wistar rats were sedated and injected IP with purified MPO in experiments that were conducted under an Eastern Virginia Medical School IRB approved protocol (#17-008). 16-week-old male Wistar rats were used in these experiments weighing approximately 200 g. The rats received sedation with ketamine and acepromazine prior to all procedures. They then received a 1 ml IP injection with MPO in saline. After the time interval indicated, a tail vein phlebotomy was performed to obtain 250 mcl of blood in a K2EDTA Microtainer (BD). The animals were then euthanized with FatalPlus IV. A peritoneal wash with 20 ml of ice cold PBS was then performed by […] followed by massage and extraction from a small hole in the peritoneum with a blunt needle and syringe.
Cells were sedimented and supernatants were tested for MPO peroxidation of TMB, with sample processing performed as follows. Peritoneal wash fluid was centrifuged at 1500×g for 5 minutes to sediment cells and other debris. The resulting peritoneal wash fluid supernatant was aliquoted and frozen for further analysis. The cell pellet was resuspended to the original volume with saline and cells were counted on a hemocytometer. Plasma was collected after centrifugation of the lavender top blood collection tubes.
The MPO activity assay was performed as follows. Peritoneal fluid, along with pure MPO for a standard curve, was serially titrated in 0.1 ml in a 96 well plate followed by the addition of 0.1 ml of 3,3′,5,5′-tetramethylbenzidine (TMB) (Fisher). After one minute, 0.1 ml of 2.5 M H2SO4 was added to stop the reaction and the plate was read at 450 nm. Using linear regression from the standard curve, the MPO activity was calculated for each sample.
In the peritoneal wash fluid supernatants, free DNA was measured as a marker of NETosis via the PicoGreen assay. Peritoneal fluid or plasma, along with DNA (Invitrogen) for a standard curve, was serially titrated in 0.1 ml in a 96 well plate and used in the Quant-iT PicoGreen (Fisher) assay. The PicoGreen solution was diluted as directed by the kit instructions and added to samples, which were incubated in the dark for 10 minutes and then read on a fluorescent microplate reader at excitation 480 nm/emission 520 nm). Using linear regression from the standard curve, the DNA concentration was quantitated for each sample.
The effect of PIC1, in particular PA-dPEG24, on the inhibition of MPO and NETosis in MPO-mediated peritonitis was then assayed. A series of increasing doses of PA-dPEG24 (1 mg, 5 mg, and 20 mg) were injected IP immediately, i.e., one minute after purified MPO was inoculated, into the peritoneum followed 2 hours later by phlebotomy, euthanasia and peritoneal wash. A control was used where no PA-dPEG24 was administered. An MPO activity assay and a free DNA assay according to the methods discussed above were conducted for each of 0 mg, 1 mg, 5 mg, and 20 mg PA-dPEG24 doses.

[1] = test system: complement activation in normal human serum (NHS); assay: Heat-aggregated IgG immune complex-initiated complement activation in normal human serum (C5a, iC3b, SC5b-9 ELISA); type: biochemical
Experimental: Immune complex activation of NHS was performed as follows. NHS was stimulated with three different types of immune complexes (IC) to induce complement activation. Heat-aggregated IgG was generated by incubating intravenous immune globulin at 50 mg/ml at 63° C. for 30 min [26]. Ovalbumin-antiovalbumin immune complexes were made by incubating 0.01 ml anti-ovalbumin antibody with an equal volume of ovalbumin, at 0.25 mg/nil, at 37° C. for 30 minutes and then storing at 4° C. overnight. C1 immune complexes were formed by incubating 0.02 ml anti-C1q goat sera with 5 μl of C1, at 200 μg/ml, at 30° C. for 30 minutes and then placing in an ice water bath. For C5a and C5b-9 assays, activation of NHS was performed by pre-incubating 5% NHS with titrating concentrations of PA-dPEG24 in 0.3 ml of GVBS^++ buffer for 30 minutes at room temperature. Then […] of either heat-aggregated IVIg, or ovalbumin IC, or 5 μI of C1-antiC1q IC was added to the mix for 30 min. at 37° C. This reaction was stopped with the addition of an equal volume of GVBS^−−. For iC3b detection, 1% NHS was used and the rest of the protocol remained the same.
ELISA was performed as follows. Samples were assayed using C5a, iC3b, and SC5b-9 ELISAs. […] Colorimetric detection was performed with TMB, stopped with H2SO4 and read on a BioTek Synergy HT plate reader at 450 nm. […]

**Q.** Which results are given for “IALILEPICCQERAA-dPEG24 (cysteine pairing not given here) [PA-dPEG24, 15-amino acid PEGylated peptide, 24 PEG moieties at the C-terminus]”?
**A.** MPO activity in peritoneal wash (Human neutrophil MPO; 1 mg (5 mg/kg) IP, 2 h): Statistically significant decreases; MPO activity in peritoneal wash (Human neutrophil MPO; 5 mg (25 mg/kg) IP, 2 h): Statistically significant decreases; free DNA in the peritoneal fluid (PicoGreen) (Human neutrophil MPO; 20 mg (100 mg/kg) IP, 2 h, P=0.11): trend towards decreased free DNA; decrease in peroxidase activity by TMB in peritoneal wash (Human neutrophil MPO; 20 mg (100 mg/kg) IP, 2 h, vs no PA-dPEG24, P=0.015): 5 fold; free DNA in blood plasma (PicoGreen) (Human neutrophil MPO; highest dose, P=0.22 vs no PIC1): lowest with the highest dose; reduction of C5a generation ([1]; 1 mM PA-dPEG24, vs heat-aggregated IgG with no inhibitor, P=0.002): 61%; PA-dPEG24 concentration giving statistically significant inhibition of effector (C5a, iC3b, SC5b-9) generation ([1]; heat-aggregated IgG in NHS, each assay, P<0.05 vs no inhibitor): ≥ 0.5 mM
